# Patent EP2951180B1, “2,6,7,8 SUBSTITUTED PURINES AS HDM2 INHIBITORS” (Merck Sharp & Dohme Corp., priority 2013, dated 2014)
# Where two headings read alike, the source gives them in different places.
# Molecular target: T1, HDM2 (Homo sapiens, UniProt Q00987)
# T1 construct: Thioredoxin (N); made in house; host or cells: E. coli strain BL21(DE3)Rosetta
# Assay: HDM2 FRET assay (inhibition of binding of FITC labeled p53-pocket peptide to HDM2)
# Conditions: read-out: FRET IC50
# In short: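 Displacement of FITC-p53 peptide (3 nM) from His-tagged HDM2 (0.5 nM) is measured by Tb-to-fluorescein FRET in PBS, 0.01% BSA, 0.01% Tween-20. IC50 values derive from 10-point curves.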
# [1] = 0.5 nM HDM2 (residues 17 to 125), 3nM peptide, two hour incubation at room temperature
# T1 sequence (Q00987 17-125): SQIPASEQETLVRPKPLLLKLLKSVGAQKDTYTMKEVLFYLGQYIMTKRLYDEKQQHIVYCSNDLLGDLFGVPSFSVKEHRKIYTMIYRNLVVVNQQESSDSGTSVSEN
structure (smiles),measurement,setting,value
"C[C@H]1CC[C@H](Cn2c(N3CCC[C@H]3C(F)(F)F)nc3nc(-c4noc(=O)[nH]4)nc(-c4cccc(Cl)c4)c32)CC1 [Example 16.69, 3-{6-(3-chlorophenyl)-7-[(trans-4-methylcyclohexyl)methyl]-8-[(2S)-2-(trifluoromethyl)pyrrolidin-1-yl]-7H-purin-2-yl}-1,2,4-oxadiazol-5 (4H)-one]",IC50,[1],0.918 nM
"COc1ccc(C)cc1-c1nc2nc(C(=O)O)nc(N[C@H](C)C3CC3(F)F)c2n1Cc1ccc(C(F)(F)F)cc1 (stereo partly drawn) [Example 7.19, 6-{[(1R)-1-(2,2-difluorocyclopropyl)ethyl]amino}-8-(2-methoxy-5-methylphenyl)-7-[4-(trifluoromethyl)benzyl]-7H-purine-2-carboxylic acid]",IC50,Table 7,772 nM
"C[C@H]1OCCN(c2nc3nc(-c4noc(=O)[nH]4)nc(-c4cccc(Cl)c4)c3n2C[C@H]2CC[C@H](C)CC2)[C@@H]1c1ccccc1 [Example 16.127, 3-{6-(3-chlorophenyl)-7-[(trans-4-methylcyclohexyl)methyl]-8-[(2R,3R)-2-methyl-3-phenylmorpholin-4-yl]-7H-purin-2-yl}-1,2,4-oxadiazol-5(4H)-one]",IC50,[1],1.06 nM
"C[C@@H](Nc1nc(C(=O)O)nc2nc(N[C@@H](CO)c3ccccc3)n(Cc3ccc(C(F)(F)F)cc3)c12)C1CCC1 [Example 9.6, 6-{[(1R)-1-cyclobutylethyl]amino}-8-{[(1R)-2-hydroxy-1-phenylethyl]amino}-7-[4-(trifluoromethyl)benzyl]-7H-purine-2-carboxylic acid]",IC50,Table 9,1.47 nM
"Cc1cccc(-c2nc3nc(C(=O)O)nc(N[C@H](C)C4CCCC4)c3n2Cc2ccc(Cl)cc2)c1 [Example 6.3, 7-(4-chlorobenzyl)-6-{[(1R)-1-cyclopentylethyl]amino}-8-(3-methylphenyl)-7H-purine-2-carboxylic acid]",IC50,Table 6,31.4 nM
"CCCN(c1nc2nc(C(=O)O)nc(N[C@H](C)C3CCC3)c2n1Cc1ccc(C(F)(F)F)cc1)C(C)c1ccccn1 (stereo partly drawn) [Example 10.32, 6-(((R)-1-cyclobutylethyl)amino)-8-(propyl(1-(pyridin-2-yl)ethyl)amino)-7-(4-(trifluoromethyl)benzyl)-7H-purine-2-carboxylic acid]",IC50,Table 10,3.72 nM
"CC(C)S(=O)(=O)N1CCN(c2nc3nc(-c4noc(=O)[nH]4)nc(N[C@H](C)C4CCC4)c3n2C[C@H]2CC[C@H](C)CC2)[C@H](C)C1 [Example 17.17, 3-(6-{[(1R)-1-cyclobutylethyl]amino}-7-[(trans-4-methylcyclohexyl)methyl]-8-{(2R)-2-methyl-4-[(1-methylethyl)sulfonyl]piperazin-1-yl}-7H-purin-2-yl)-1,2,4-oxadiazol-5(4H)-one]",IC50,Table 17.2,10.1 nM
"CCOc1cc(C(C)C)cc(-c2nc3nc(C(=O)O)nc(N[C@H](C)C4CCC4)c3n2C[C@H]2CC[C@H](C)CC2)n1 [Example 15.4, 6-(((R)-1-cyclobutylethyl)amino)-8-(6-ethoxy-4-isopropylpyridin-2-yl)-7-((trans-4-methylcyclohexyl)methyl)-7H-purine-2-carboxylic acid]",IC50,[1],4.44 nM
"CC[C@H]1CC[C@H](Cn2c(N3CCOCC3)nc3nc(C(=O)O)nc(N[C@H](C)C4CCC4)c32)CC1 [Example 18.19, 6-{[(1R)-1-cyclobutylethyl]amino}-7-[(trans-4-ethylcyclohexyl)methyl]-8-morpholin-4-yl-7H-purine-2-carboxylic acid]",IC50,Table 18,13.1 nM
"COC1(c2nc3nc(-c4noc(=O)[nH]4)nc(-c4cncc(Cl)c4)c3n2C[C@H]2CC[C@H](C)CC2)CCCC1 [Example 23.77, 3-{6-(5-chloropyridin-3-yl)-8-(1-methoxycyclopentyl)-7-[(trans-4-methylcyclohexyl)methyl] -7H-purin-2-yl}-1,2,4-oxadiazol-5(4H)-one]",IC50,Table 23,8.06 nM
"C[C@@H](Nc1nc(C(=O)O)nc2nc(N3CCCCC3c3cccnc3)n(C[C@H]3CC[C@H](C)CC3)c12)C1CCC1 (stereo partly drawn) [Example 11.19, 6-{[(1R)-1-cyclobutylethyl]amino}-7-[(trans-4-methylcyclohexyl)methyl]-8-(2-pyridin-3-ylpiperidin-1-yl)-7H-purine-2-carboxylic acid]",IC50,Table 11,0.895 nM
